# Test results reported in patent US20240228458A1, “PYRIMIDINE DERIVATIVE HAVING PROTEIN KINASE INHIBITORY ACTIVITY, AND THERAPEUTIC PHARMACEUTICAL COMPOSITION COMPRISING SAME” (THERAPEX CO., LTD., priority 2021, published 2024).
# Key:
# Format in all cases: cell-based
# [1] = system: Ba/F3 cells expressing EGFR-wt; assay: Growth inhibition (GI50) of Ba/F3 cells expressing EGFR-wt, Celltiter glo; settings: Mus musculus, BaF3, 72 h
# Description: (§1) In this experimental example, a determination was made as to whether the compounds prepared in Examples 1-283 have the ability to inhibit the growth of Ba/F3 cells expressing EGFR-wt, del19/T790M/C797S (EGFR-DTC), L858R/T790M/C797S (EGFR-LTC), del19/T790M (EGFR-DT), and L858R/T790M (EGFR-LT) variants.
# (§2) The parental Ba/F3 cell line is a population of cells that are not introduced with EGFR variants. Specifically, 100 μl of a cell line expressing each variant was plated in a 96-well plate at a density of 100,000 cells/ml. 10-point, 4-fold serial dilutions of each compound were prepared, starting at 2 mM. After 4 h, 0.5 μl of the compound (0.5% DMSO) was added, followed by incubation at 37° C. and 5% CO2 for 72 h. After incubation, the number of viable cells was measured using a Celltiter glo assay kit (Promega) and the GI50 of the compound was determined. The term “GI50” refers to the molar concentration (μM) of the compound required for 50% growth inhibition of cells.
# [2] = system: Ba/F3 cells expressing del19/T790M/C797S (EGFR-DTC); assay: Growth inhibition (GI50) of Ba/F3 cells expressing del19/T790M/C797S (EGFR-DTC), Celltiter glo; settings: Mus musculus, BaF3, 72 h
# Description: as §1, §2
# parental Ba/F3 cell line = assay: Growth inhibition (GI50) of the parental Ba/F3 cell line (not introduced with EGFR variants), Celltiter glo; settings: Mus musculus, BaF3, 72 h, parental Ba/F3 cells
# Description: as §2
# [3] = system: Ba/F3 cells expressing L858R/T790M/C797S (EGFR-LTC); assay: Growth inhibition (GI50) of Ba/F3 cells expressing L858R/T790M/C797S (EGFR-LTC), Celltiter glo; settings: Mus musculus, BaF3, 72 h
# Description: as §1, §2
SMILES,GI50 [1],GI50 [2],GI50 (parental Ba/F3 cell line),GI50 [3]
CCN1CCN(c2ccc(Nc3ncc(Cl)c(Nc4ccccc4NS(C)(=O)=O)n3)c(OC)n2)CC1 [Example 1],500 to 2000 nM,100 to 500 nM,2000 to 10000 nM,
"COc1cc(N2CCC(N3CCN(C)CC3)CC2)c(C)cc1Nc1ncc(Cl)c(Nc2ccccc2NS(C)(=O)=O)n1 [Example 2, N-(2-((5-chloro-2-((2-methoxy-5-methyl-4-(4-(4-methylpiperazin-1-yl)piperidin-1-yl)phenyl)amino)pyrimidin-4-yl)amino)phenyl)methanesulfonamide]",100 to 500 nM,1 to 25 nM,500 to 2000 nM,
"CN1CCN(C2CCN(c3ccc(Nc4ncc(Cl)c(Nc5ccccc5NS(C)(=O)=O)n4)cn3)CC2)CC1 [Example 3, N-(2-((5-chloro-2-((6-(4-(4-methylpiperazin-1-yl)piperidin-1-yl)pyridin-3-yl)amino)pyrimidin-4-yl)amino)phenyl)methanesulfonamide]",500 to 2000 nM,100 to 500 nM,500 to 2000 nM,
"CN1CCN(C2CCN(c3ccc(Nc4ncc(Cl)c(Nc5ccccc5NS(C)(=O)=O)n4)c(OCC(F)(F)F)n3)CC2)CC1 [Example 4, N-(2-((5-chloro-2-((6-(4-(4-methylpiperazin-1-yl)piperidin-1-yl)-2-(2,2,2-trifluoroethoxy)pyridin-3-yl)amino)pyrimidin-4-yl)amino)phenyl)methanesulfonamide]",2000 to 10000 nM,500 to 2000 nM,2000 to 10000 nM,
"CN1CCN(C2CCN(c3ccc(Nc4ncc(Cl)c(Nc5ccccc5NS(C)(=O)=O)n4)cc3F)CC2)CC1 [Example 5, N-(2-((5-chloro-2-((3-fluoro-4-(4-(4-methylpiperazin-1-yl)piperidin-1-yl)phenyl)amino)pyrimidin-4-yl)amino)phenyl)methanesulfonamide]",100 to 500 nM,1 to 25 nM,25 to 100 nM,
"COc1cc(N2CCC(N3CCN(C)CC3)CC2)c(Cl)cc1Nc1ncc(Cl)c(Nc2ccccc2NS(C)(=O)=O)n1 [Example 7, N-(2-((5-chloro-2-((5-chloro-2-methoxy-4-(4-(4-methylpiperazin-1-yl)piperidin-1-yl)phenyl)amino)pyrimidin-4-yl)amino)phenyl)methanesulfonamide]",100 to 500 nM,100 to 500 nM,500 to 2000 nM,100 to 500 nM
"COc1nc(N2CCC(N(C)C)C2)ccc1NC1=[N+]=C(N(c2ccccc2NS(C)(=O)=O)S(C)(=O)=O)C(Cl)=CN1 (centres unmarked) [Example 8, N-(5-chloro-2-((6-(3-(dimethylamino)pyrrolidin-1-yl)-2-methoxypyridin-3-yl)amino)pyrimidin-4-yl)-N-(2-(methylsulfonamido)phenyl)methanesulfonamide]",2000 to 10000 nM,100 to 500 nM,2000 to 10000 nM,500 to 2000 nM
"COc1cc(N2CCC(N3CCN(C)CC3)CC2)c(C)cc1Nc1ncc(Cl)c(N(c2ccccc2NS(C)(=O)=O)S(C)(=O)=O)n1 [Example 9, N-(5-chloro-2-((2-methoxy-5-methyl-4-(4-(4-methylpiperazin-1-yl)piperidin-1-yl)phenyl)amino)pyrimidin-4-yl)-N-(2-(methylsulfonamido)phenyl)methanesulfonamide]",100 to 500 nM,100 to 500 nM,500 to 2000 nM,25 to 100 nM
"COc1nc(N2CCC(N3CCN(C)CC3)CC2)ccc1Nc1ncc(Cl)c(N(c2ccccc2NS(C)(=O)=O)S(C)(=O)=O)n1 [Example 10, N-(5-chloro-2-((2-methoxy-6-(4-(4-methylpiperazin-1-yl)piperidin-1-yl)pyridin-3-yl)amino)pyrimidin-4-yl)-N-(2-(methylsulfonamido)phenyl)methanesulfonamide]",500 to 2000 nM,500 to 2000 nM,2000 to 10000 nM,500 to 2000 nM
COc1cc(N2CCC(N3CCN(C)CC3)CC2)c(C)cc1Nc1ncc(Cl)c(N(C)c2ccccc2N(C)S(C)(=O)=O)n1 [Example 11],2000 to 10000 nM,500 to 2000 nM,500 to 2000 nM,500 to 2000 nM
COc1cc(N2CCC(N3CCN(C)CC3)CC2)c(C)cc1Nc1ncc(Cl)c(Nc2ccc(F)cc2NS(C)(=O)=O)n1 [Example 12],100 to 500 nM,25 to 100 nM,2000 to 10000 nM,
CS(=O)(=O)Nc1cc(F)ccc1Nc1nc(Nc2ccc(N3CCOCC3)nc2)ncc1Cl [Example 13],500 to 2000 nM,100 to 500 nM,500 to 2000 nM,
CN1CCN(C2CCN(c3ccc(Nc4ncc(Cl)c(Nc5ccc(F)cc5NS(C)(=O)=O)n4)cn3)CC2)CC1 [Example 14],> 10000 nM,2000 to 10000 nM,2000 to 10000 nM,
CN1CCN(C2CCN(c3ncc(Nc4ncc(Cl)c(Nc5ccc(F)cc5NS(C)(=O)=O)n4)cc3F)CC2)CC1 [Example 16],2000 to 10000 nM,500 to 2000 nM,500 to 2000 nM,
"COc1nc(N2CCC(N3CCN(C)CC3)CC2)ccc1Nc1ncc(Cl)c(Nc2ccc(F)cc2NS(C)(=O)=O)n1 [Example 17, N-(2-((5-chloro-2-((2-methoxy-6-(4-(4-methylpiperazin-1-yl)piperidin-1-yl)pyridin-3-yl)amino)pyrimidin-4-yl)amino)-5-fluorophenyl)methanesulfonamide]",2000 to 10000 nM,500 to 2000 nM,2000 to 10000 nM,
COc1cc(N2CCC(N3CCN(C)CC3)CC2)c(C)cc1Nc1ncc(Cl)c(Nc2ccccc2C(F)(F)F)n1 [Example 46],2000 to 10000 nM,2000 to 10000 nM,2000 to 10000 nM,
COc1cc(N2CCC(N3CCN(C)CC3)CC2)ccc1Nc1ncc(Cl)c(Nc2ccccc2C(F)(F)F)n1 [Example 47],2000 to 10000 nM,500 to 2000 nM,2000 to 10000 nM,
CCN1CCN(c2ccc(Nc3ncc(Cl)c(Nc4ccccc4C(F)(F)F)n3)cc2)CC1 [Example 48],2000 to 10000 nM,500 to 2000 nM,2000 to 10000 nM,
FC(F)(F)c1ccccc1Nc1nc(Nc2ccc(N3CCOCC3)nc2)ncc1Cl [Example 49],2000 to 10000 nM,500 to 2000 nM,2000 to 10000 nM,
"CNS(=O)(=O)c1ccccc1Nc1nc(Nc2cc(C)c(N3CCC(N4CCN(C)CC4)CC3)cc2OC)ncc1Cl [Example 50, 2-((5-chloro-2-((2-methoxy-5-methyl-4-(4-(4-methylpiperazin-1-yl)piperidin-1-yl)phenyl)amino)pyrimidin-4-yl)amino)-N-methylbenzenesulfonamide]",500 to 2000 nM,100 to 500 nM,500 to 2000 nM,
"CNS(=O)(=O)c1ccccc1Nc1nc(Nc2ccc(N3CCC(N4CCN(C)CC4)CC3)cc2OC)ncc1Cl [Example 51, 2-((5-chloro-2-((2-methoxy-4-(4-(4-methylpiperazin-1-yl)piperidin-1-yl)phenyl)amino)pyrimidin-4-yl)amino)-N-methylbenzenesulfonamide]",2000 to 10000 nM,100 to 500 nM,2000 to 10000 nM,
"CNS(=O)(=O)c1ccccc1Nc1nc(Nc2ccc(N3CCC(N4CCN(C)CC4)CC3)nc2)ncc1Cl [Example 52, 2-((5-chloro-2-((6-(4-(4-methylpiperazin-1-yl)piperidin-1-yl)pyridin-3-yl)amino)pyrimidin-4-yl)amino)-N-methylbenzenesulfonamide]",100 to 500 nM,25 to 100 nM,100 to 500 nM,
"CNS(=O)(=O)c1ccccc1Nc1nc(Nc2ccc(N3CCOCC3)nc2)ncc1Cl [Example 53, 2-((5-chloro-2-((6-morpholinopyridin-3-yl)amino)pyrimidin-4-yl)amino)-N-methylbenzenesulfonamide]",100 to 500 nM,100 to 500 nM,100 to 500 nM,
"CCN1CCN(c2ccc(Nc3ncc(Cl)c(Nc4ccccc4S(=O)(=O)NC)n3)c(OC)n2)CC1 [Example 54, 2-((5-chloro-2-((6-(4-ethylpiperazin-1-yl)-2-methoxypyridin-3-yl)amino)pyrimidin-4-yl)amino)-N-methylbenzenesulfonamide]",100 to 500 nM,2000 to 10000 nM,2000 to 10000 nM,
"CNS(=O)(=O)c1ccccc1Nc1nc(Nc2ccc(N3CCC(N4CCN(C)CC4)CC3)nc2OC)ncc1Cl [Example 55, 2-((5-chloro-2-((2-methoxy-6-(4-(4-methylpiperazin-1-yl)piperidin-1-yl)pyridin-3-yl)amino)pyrimidin-4-yl)amino)-N-methylbenzenesulfonamide]",500 to 2000 nM,500 to 2000 nM,100 to 500 nM,
"COc1cc(N2CCC(N3CCN(C)CC3)CC2)c(C)cc1Nc1ncc(Cl)c(Nc2ccccc2S(=O)(=O)NC2CC2)n1 [Example 59, 2-((5-chloro-2-((2-methoxy-5-methyl-4-(4-(4-methylpiperazin-1-yl)piperidin-1-yl)phenyl)amino)pyrimidin-4-yl)amino)-N-cyclopropylbenzenesulfonamide]",500 to 2000 nM,500 to 2000 nM,500 to 2000 nM,
"CN1CCN(C2CCN(c3ccc(Nc4ncc(Cl)c(Nc5ccccc5S(=O)(=O)NC5CC5)n4)cc3F)CC2)CC1 [Example 60, 2-((5-chloro-2-((3-fluoro-4-(4-(4-methylpiperazin-1-yl)piperidin-1-yl)phenyl)amino)pyrimidin-4-yl)amino)-N-cyclopropylbenzenesulfonamide]",100 to 500 nM,25 to 100 nM,100 to 500 nM,
COc1nc(N2CCC(N3CCN(C)CC3)CC2)ccc1Nc1ncc(Cl)c(Nc2ccccc2S(=O)(=O)NC2CC2)n1 [Example 61],2000 to 10000 nM,2000 to 10000 nM,500 to 2000 nM,
